In data set [1] the test system is amide synthetase McbA. Briefly: Amidation assay with purified McbA variants, products analyzed by LC-MS. In kind it is biochemical, Marinactinospora thermotolerans. The settings on record: for Fold-Increase in yield: best ML-predicted variant (ML-McbA) versus wt-McbA for the named product, purified enzyme 0.5 mg/mL, n=3. Here is the method:
(§1) Amide products (along with acid substrates and some adenylated acid intermediates) were analyzed using an Agilent G6125B Single Quadrupole LC/MSD system equipped with an electrospray ionization source set to positive ionization mode. The quenched samples were centrifuged for 10 min at 4,500×g to remove precipitated proteins. A separate 384-well plate for sample injection into the HPLC-MS was prepared by diluting 5 μL of the quenched samples with 25 μL of methanol using the Integra VIAFLO. Trace amounts of compounds were detected using MS, while many compounds were present in high enough concentration to quantify by diode array detector (DAD) at 254 nm. Compounds were separated on a Luna C18 Column (Phenomenex 00D-4251-B0) using mobile phases (A) H2O with 0.1% formic acid and (B) Acetonitrile. The general method for chromatographic separation was carried out using the following gradients at a constant flow rate of 0.5 mL/min: 0 min 5% B; 1 min 5% B; 4 min 95% B; 4.5 min 95% B; 5 min 5% B. For the MS, capillary voltage was set at 3 kV, and nitrogen gas was used for nebulizing (35 psig) and drying (12 l/min, 350° C.). The MS was calibrated using Tuning Mix (Agilent G2421-60001) before measurements were taken. MS data were acquired with a scan range of 50-600 m/z with various SIM m/z's according to which compound the inventors were screening for. LC-MS data were collected and analyzed using Agilent OpenLab CDS ChemStation software. The product yield was calculated by dividing the DAD peak area for the amide product by the sums of the peak areas of both the amide and the acid substrate.
Amidation assays for the purified McbA variants were set up similarly as described above. 8-μL reactions were assembled in triplicate, containing […], 10 mM MgCl2, 10 U/mL pyrophosphatase (Sigma I5907), 0.5 mg/mL McbA, 10% v/v DMSO, and volume to fill of 50 mM potassium phosphate pH 7.5. For assaying the production of cinchocaine and procainamide, substrates were decreased in stoichiometric amounts to 20 mM and 10 mM, respectively. This was to compensate for an observed poor solubility of these two acids (2-butoxyquinoline-4-carboxylic acid and 4-aminobenzoic acid) in the purified reaction at 10% v/v DMSO. Reactions were incubated at 37° C. for 16 hours and then quenched with 25-μL of methanol. The CAS numbers of all chemicals used in the hot spot screens, as well as the amide standards the inventors purchased, can be found in Table 1.
With the MLDE strategy validated, the approach could enable parallelized protein engineering for a wide variety of molecules (FIG. 14A). Starting with an identified target reaction from our substrate scope screen (FIGS. 5A-5F), we could use the same instance of our 1,280 single mutant McbA variant library to perform an HSS, select four hot spots, train and implement our machine learning model, and experimentally test the top 24 predictions (FIG. 14B). This approach was used to engineer distinct McbA mutants for the synthesis of an additional six pharmaceutical compounds (FIGS. 14B-14C). After identifying the best predicted variant for each reaction, the best variant for each reaction was expressed and purified, and the activity for each compound compared to wt-McbA (FIG. 14D). Fold-increase in yield observed compares wt-McbA to ML-McbA (n=3) for each small-molecule pharmaceutical. Increases in yield of the best mutant were observed ranging from 1.6-fold to 34-fold over wt-McbA for the six compounds tested.

Data set [2] relates to amide synthetase McbA. Briefly: Substrate scope screen of McbA (all-by-all acids and amines, RP-HPLC). In kind it is biochemical, Marinactinospora thermotolerans. As to conditions: for wt conversion: conversion to the named amide product by wild-type McbA, ~1 μM enzyme, 25 mM substrates, 10% DMSO. The procedure: as §1, with “MS data were acquired with a scan range of 50-600 m/z with various SIM m/z's according to which compound the inventors were screening for.” left out
(§2) All high-throughput assays (hot spot screen, iterative site saturation mutagenesis, substrate scope, ML predictions validation, and ML prediction exploration) were assembled in 384-well plates (Bio-Rad) using an Integra VIAFLO liquid handling robot. […] The amidation assay was initiated by adding 3-μL of crude CFPS reaction containing an expressed McbA variant, with final concentrations of 25 mM ATP, 25 mM acid, 25 mM amine, 10% v/v DMSO, and ˜1 μM of enzyme (determined by ^14C-leucine incorporation using previously described protocols^66). […]

Data set [3] has as its system amide synthetase McbA. Briefly: High-throughput amidation assay with crude CFPS-expressed McbA variants (hot spot screen, ISM). In kind it is biochemical, Marinactinospora thermotolerans. As to conditions: for conversion (yield) of moclobemide: final screening conditions, moclobemide synthesis, 25 mM ATP, acid, amine, 10% v/v DMSO, 37° C. 16 hours. The procedure:
as §1, with “MS data were acquired with a scan range of 50-600 m/z with various SIM m/z's according to which compound the inventors were screening for.” left out
as §2

Data set [4] relates to amide synthetase McbA. The data set can be described thus: Apparent steady-state kinetics, amide bond formation coupled to NADH oxidation. Format: biochemical, Marinactinospora thermotolerans. The settings on record: kcat/KM for the amine, versus wt-McbA. The procedure: McbA apparent kinetics for the amine pair of moclobemide (4-(2-aminoethyl)morpholine) were determined by enzymatically coupling amide bond formation (and the concomitant release of AMP from the acyl-AMP intermediate by its substitution with the amine) with the oxidation of NADH, as shown in FIGS. 7A-7B. Reactions contained 100 mM MOPS-KOH pH 7.8, 5 mM MgCl2, 2.5 mM phosphoenolpyruvate, 5 mM ATP, 0.3 mM NADH, 50 mM 4-chlorobenzoic acid, 15 U/mL pyruvate kinase and lactate dehydrogenase enzyme mix (Sigma-Aldrich P0294), 25 U/mL myokinase (Sigma-Aldrich 475941), and various concentrations (50-200 μg/mL) of the studied McbA variant. As the acid here (4-chlorobenzoic acid) has poor solubility in water and was dissolved in DMSO, the final reactions contained 10% v/v DMSO (equivalent to our amidation screens). 180-μL reactions were first equilibrated at 30° C. for 3 minutes and then initiated by adding 20-μL of amine. The initial velocity was determined for different concentrations of amine (0.1 mM-50 mM) by measuring NADH absorbance at 340 nm on a Cary 60 UV-Vis (Agilent). Data were collected and analyzed using the Cary WinUV Kinetics Application software (Agilent). Michaelis-Menten graphs were plotted in GraphPad Prism and fit using the default Michaelis-Menten non-linear regression analysis tool.

Data set [5] can be described thus: Protein melting temperature by circular dichroism. In kind it is physicochemical. Here is the method:
Protein melting temperature was determined using a Jasco J-810 circular dichroism spectrophotometer with a 10 mm path length cuvette monitored at 222 nm. McbA samples were first buffer exchanged into a 1× phosphate buffered saline solution, pH 7.4, and diluted to 0.2-0.4 mg/mL.
(Circular dichroism is widely used to follow secondary structure.)

Numbering of substitutions follows the chain as printed.

As to `CCCCOc1cc(C(=O)NCCN(CC)CC)c2ccccc2n1` [Cinchocaine], the Fold-Increase in yield with amide synthetase McbA [1] is recorded as 1.7 fold. For the same molecule, the wt conversion in the data set on amide synthetase McbA [2] is on record as 2%.
For the molecule `CCN(CC)CCNC(=O)c1ccc(N)c(Cl)c1` [Declopramide], the Fold-Increase in yield with amide synthetase McbA [1] was 2.7 fold.
Same read-out and setting: next, `COc1ccc(C(=O)NCc2ccc(OCCN(C)C)cc2)cc1OC` [Itopride]: 1.6 fold.
The molecule `CCN(CC)CCNC(=O)c1cc(Cl)c(N)cc1OC` [Metoclopramide] returned a wt conversion with amide synthetase McbA [2] of 3%.
As to `CCN(CC)CCNC(=O)c1ccc(N)cc1` [Procainamide], the Fold-Increase in yield with amide synthetase McbA [1] was 10 fold.
Same read-out and setting: as for `CCN1CCCC1CNC(=O)c1cc(S(N)(=O)=O)ccc1OC` (centres unmarked) [Sulpiride], the figure is 6 fold; as for `COc1cc(C(=O)NCc2ccc(OCCN(C)C)cc2)cc(OC)c1OC` [Trimethobenzamide], 4.1 fold; as for `COc1cc(C(=O)NC2CCCNC2)cc(OC)c1OC` (centres unmarked) [Troxipide], 34 fold.

B1: wt-McbA: wild-type amide bond synthetase McbA from Marinactinospora thermotolerans with CSL-tag, SEQ ID NO: 2 (protein)
chain: MEKKIWSHPQFEKGGSGENLYFQGGYARRVMDGIGEVAVTGAGGSVTGARLRHQVRLLAHALTEAGIPPGRGVACLHANTWRAIALRLAVQAIGCHYVGLRPTAAVTEQARAIAAADSAALVFEPSVEARAADLLERVSVPVVLSLGPTSRGRDILAASVPEGTPLRYREHPEGIAVVAFTSGTTGTPKGVAHSSTAMSACVDAAVSMYGRGPWRFLIPIPLSDLGGELAQCTLATGGTVVLLEEFQPDAVLEAIERERATHVFLAPNWLYQLAEHPALPRSDLSSLRRVVYGGAPAVPSRVAAARERMGAVLMQNYGTQEAAFIAALTPDDHARRELLTAVGRPLPHVEVEIRDDSGGTLPRGAVGEVWVRSPMTMSGYWRDPERTAQVLSGGWLRTGDVGTFDEDGHLHLTDRLQDIIIVEAYNVYSRRVEHVLTEHPDVRAAAVVGVPDPDSGEAVCAAVVVADGADPDPEHLRALVRDHLGDLHVPRRVEFVRSIPVTPAGKPDKVKVRTWFTD
modifications: CSL-tag
With B1, the “amide bond formation step for troxipide” value in the data set with amide synthetase McbA [1] (proficient at adenylating 3,4,5-trimethoxybenzoic acid, intermediate seen by LCMS) was “unable to catalyze amide bond formation”. The “conversion (yield) of moclobemide” value in the data set with amide synthetase McbA [3] is 12%. Also, the stereoselectivity result in the data set on amide synthetase McbA [2] (sulpiride synthesis) is listed as “strongly favoring the synthesis of S-sulpiride over R-sulpiride”.

B2: qm-McbAmetoclopramide: quadruple mutant of McbA from ISM campaign for metoclopramide, SEQ ID NO: 146 (protein)
chain: B1 chain with V177S, T319C, A323F, A424T
With B2, the “activity over wt-McbA” value with amide synthetase McbA [3] (metoclopramide synthesis, after three rounds of ISM) was roughly 30 fold.

B3: qm-McbAmoclobemide: quadruple mutant of McbA from ISM campaign for moclobemide, SEQ ID NO: 145 (protein)
chain: B1 chain with V177S, I220S, A323F, R430L
For B3, the “increase in catalytic efficiency from wt-McbA” value with amide synthetase McbA [4] worked out at 42 fold. Further, the “conversion (yield) of moclobemide” value in the data set with amide synthetase McbA [3] amounted to 96%. Besides, the “melting point change versus wt-McbA” value in data set [5] is on record as “did not significantly change”.

B4: ml-McbAtroxipide: best ML-predicted McbA variant for troxipide, SEQ ID NO: 155 (protein)
chain: B1 chain with V177A, A323L, A424T, R430V
Turning to B4, the increase in activity in the data set on amide synthetase McbA [1] (troxipide synthesis, versus wt-McbA) was 34 fold.

The values are drawn from US20250259704A1, “SYSTEMS AND METHODS FOR CELL-FREE ITERATIVE SITE SATURATION MUTAGENESIS AND ITS APPLICATION FOR THE DIRECTED EVOLUTION OF ENZYMES CATALYZING UNNATURAL REACTIONS” (Northwestern University, priority 2022, published 2025).
